# According to US20240166681A1, “3'3' CYCLIC DINUCLEOTIDES CONTAINING ISONUCLEOTIDIC UNITS” (INSTITUTE OF ORGANIC CHEMISTRY AND BIOCHEMISTRY AS CR, V. …, priority 2021, published 2024):
# Molecular target: WT STING (Homo sapiens, UniProt Q86WV6, H232R)
# Assay: Digitonin assay using 293T wtSTING-FL reporter cells
# Assay type: cell-based
# Parameters: host or cells: 293T (ATCC CRL-3216), stably transfected
# Settings: 293T wtSTING-FL cells, digitonin buffer 30 min, then 5 h, ISRE firefly luciferase reporter
# Text: […] […] (SEQ ID NO:2) containing four interferon-sensitive response elements (ISRE) were synthesized by Sigma Aldrich (Czech Republic, Prague). The oligonucleotides were mixed in equal molar amounts, hybridized, and cleaved by restriction endonucleases HindIII (cat. #.R0104S, NEB, Ipswich, USA) and BglII (cat. #R0144S, NEB, Ipswich, USA). Ultimately, they were ligated into plasmid pGL4.27 (cat. #E6651, Promega, Madison, USA) linearized with the same enzymes. As result the sequence with four ISRE sites was placed upstream of the minimum promoter of firefly luciferase reporter gene.
# 293T cells (cat. #CRL-3216, ATCC, Manassas, USA) were seeded a day before transfection at density 125,000 cells per cm^2 onto poly-D-lysine (cat. #P6407, Sigma Aldrich, Czech Republic) coated six well plates in antibiotic free DMEM with high glucose (cat. #D5796, Sigma Aldrich, Czech Republic) supplemented with 10% heat inactivated FBS (cat. #S1520, Biowest, Riverside, USA). On the day of transfection, 2.5 μg of the plasmid pUNO1-hSTING-WT (cat. #punol-hstingwt, InvivoGen, San Diego, USA,) encoding human wild type STING (WT STING) was diluted in 125 μL OptiMEM medium (cat. #31985062, ThermoFisher, Waltham, USA) and mixed with 125 μL of the same medium containing 12.5 μL of Lipofectamine 2000 (cat. #11668019, ThermoFisher, Waltham, USA). After 5 minutes incubation at room temperature (RT), 250 μL of the mixture was added dropwise to the cells in one well. Cells were incubated 36 hours at 37° C. with 5% CO2, and then detached with 0.05% Trypsin and 0.22 g/L EDTA (both cat. #L0941, Biowest, Riverside, USA).
# Transfected cells were seeded onto poly-D-lysine coated six well plates at density 50,000 cells per 1 cm^2 in DMEM medium with high glucose containing 10% heat inactivated FBS, 30 μg/mL blasticidin (cat. #ant-b1-05, InvivoGen, San Diego, USA), 0.06 mg/ml Penicillin G and 0.1 mg/ml Streptomycin Sulfate (both cat. #. L0018, Biowest, Riverside, USA). The medium was replenished every 3-4 days until visible colonies of cells resistant to blasticidin were formed.
# Blasticidin resistant cells stably expressing WT STING were further transfected with […] plasmid following the same procedure as described above. The transfected cells were selected for the resistance to 300 μg/mL hygromycin (cat. #. 10687010, ThermoFisher, Waltham, USA) in DMEM with high glucose containing 10% heat inactivated FBS, 30μg/mL blasticidin, 0.06 mg/ml Penicillin G and 0.1 mg/ml Streptomycin Sulfate. Homogeneous culture of stably double transfected cells was prepared by limiting dilution of cells in 96 well plates and wells with cells were selected that originated from a single cell. These cells were expanded, and expression of WT STING was confirmed by western blot using monoclonal mouse anti STING antibodies (cat. #. MAB7169, 1:1000 dilution; […]. Genomic DNA from the transfected cells was amplified with primers pUNO1_Seq_F ([…]) (SEQ ID NO:3) and pUNO1_Seq_R ([…]) (SEQ ID NO:4) that were complementary to pUNO1 plasmid and the presence of WT STING gene in the transfected cells was confirmed by DNA sequencing.
# 293T wtSTING-FL cells were seeded at density of 250,000 cells per cm^2 onto 96 well poly-D-lysine coated plates in 100 μl DMEM with high glucose supplemented with 10% heat inactivated FBS. The medium was removed next day and three fold serial dilutions of compounds in Digitonin buffer containing 50 mmol·l^−1 HEPES (cat. #H3375, Sigma Aldrich, Czech Republic) pH 7.0, 100 mmol·l^−1 KCl, 3 mmol·l^−1 MgCl2, 0.1 mmol.·l^−1 DTT (cat. #D0632, Sigma Aldrich, Czech Republic), 85 mmol·l^−1 Sucrose (cat. #S7903, Sigma Aldrich, Czech Republic), 0.2% BSA (cat. #A2153, Sigma Aldrich, Czech Republic), 1 mmol·l^−1 ATP (cat. #A1852, Sigma Aldrich, Czech Republic), 0.1 mmol·l^−1 GTP (cat. #G8877, Sigma Aldrich, Czech Republic), and 10 μg/mL Digitonin A (cat. #D141, Sigma Aldrich, Czech Republic) were added to the cells. […]
# Sequence of WT STING (Q86WV6 whole entry H232R): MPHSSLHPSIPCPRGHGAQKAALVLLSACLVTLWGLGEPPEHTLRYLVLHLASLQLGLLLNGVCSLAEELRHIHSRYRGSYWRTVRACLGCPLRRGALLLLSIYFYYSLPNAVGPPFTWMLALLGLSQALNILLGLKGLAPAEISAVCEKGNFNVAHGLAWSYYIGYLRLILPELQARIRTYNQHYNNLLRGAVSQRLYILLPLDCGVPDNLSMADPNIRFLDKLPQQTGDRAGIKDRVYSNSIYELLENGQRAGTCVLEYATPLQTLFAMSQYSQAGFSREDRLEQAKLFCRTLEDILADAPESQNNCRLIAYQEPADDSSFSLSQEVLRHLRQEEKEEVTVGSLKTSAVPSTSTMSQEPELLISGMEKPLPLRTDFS
row,SMILES,EC50
1,"Nc1nc2c(ncn2[C@@H]2O[C@@H]3COP(=O)(O)O[C@H]4[C@H](n5cnc6c(N)ncnc65)CO[C@@H]4COP(=O)(O)O[C@H]3[C@H]2F)c(=O)[nH]1 [Compound 24, (1S,6R,8R,9R,10R,15R,18R)-8-(2-amino-6-oxo-6,9-dihydro-1H-purin-9-yl)-18-(6-amino-9H-purin-9-yl)-9-fluoro-3,12-dihydroxy-2,4,7,11,13,16-hexaoxa-3λ^5,12λ^5-diphosphatricyclo[13.3.0.0^6,10]octadecane-3,12-dione]",0.03 µM
2,"Nc1ncnc2c1ncn2[C@@H]1CO[C@@H]2COP(=O)(O)O[C@H]3[C@@H](F)[C@H](n4cnc5c(N)ncnc54)O[C@@H]3COP(=O)(O)O[C@@H]12 [Compound 28, (1S,6R,8R,9R,10R,15R,18R)-8,18-bis(6-amino-9H-purin-9-yl)-9-fluoro-3,12-dihydroxy-2,4,7,11,13,16-hexaoxa-3λ^5,12λ^5-diphosphatricyclo[13.3.0.0^6,10]octadecane-3,12-dione]",0.02 µM
3,"Nc1ncnc2c1ncn2[C@@H]1CC[C@@H]2COP(=O)(O)O[C@H]3[C@@H](F)[C@H](n4cnc5c(N)ncnc54)O[C@@H]3COP(=O)(O)O[C@H]21 [Compound 34, (1R,6R,8R,9R,10R,15R,18R)-8,18-bis(6-amino-9H-purin-9-yl)-9-fluoro-3,12-dihydroxy-2,4,7,11,13-pentaoxa-3λ^5,12λ^5-diphosphatricyclo[13.3.0.0^6,10]octadecane-3,12-dione]",0.45 µM
4,"Nc1ncnc2c1ncn2[C@@H]1CO[C@@H]2COP(=O)(O)O[C@H]3C[C@H](n4cnc5c(N)ncnc54)O[C@@H]3COP(=O)(O)O[C@@H]12 [Compound 50, (1S,6R,8R,10S,15R,18R)-8,18-bis(6-amino-9H-purin-9-yl)-3,12-dihydroxy-2,4,7,11,13,16-hexaoxa-3λ^5,12λ^5-diphosphatricyclo[13.3.0.0^6,10]octadecane-3,12-dione]",0.28 µM
5,"Nc1nc2c(ncn2[C@@H]2CO[C@@H]3COP(=O)(O)O[C@H]4[C@@H](F)[C@H](n5cnc6c(N)ncnc65)O[C@@H]4COP(=O)(O)O[C@@H]23)c(=O)[nH]1 [Compound 51, (1S,6R,8R,9R,10R,15R,18R)-18-(2-amino-6-oxo-6,9-dihydro-1H-purin-9-yl)-8-(6-amino-9H-purin-9-yl)-9-fluoro-3,12-dihydroxy-2,4,7,11,13,16-hexaoxa-3λ^5,12λ^5-diphosphatricyclo[13.3.0.0^6,10]octadecane-3,12-dione]",0.08 µM
6,"Nc1nc2c(ncn2[C@@H]2CO[C@@H]3COP(=O)(O)O[C@H]4[C@H](n5cnc6c(N)ncnc65)CO[C@@H]4COP(=O)(O)O[C@@H]23)c(=O)[nH]1 [Compound 52, (1S,6R,9R,10S,15R,18R)-9-(2-amino-6-oxo-6,9-dihydro-1H-purin-9-yl)-18-(6-amino-9H-purin-9-yl)-3,12-dihydroxy-2,4,7,11,13,16-hexaoxa-3λ^5,12λ^5-diphosphatricyclo[13.3.0.0^6,10]octadecane-3,12-dione]",1.35 µM
7,"Nc1nc2c(ncn2[C@@H]2CO[C@@H]3COP(=O)(O)O[C@H]4C[C@H](n5cnc6c(N)ncnc65)O[C@@H]4COP(=O)(O)O[C@@H]23)c(=O)[nH]1 [Compound 53, (1S,6R,8R,10S,15R,18R)-18-(2-amino-6-oxo-6,9-dihydro-1H-purin-9-yl)-8-(6-amino-9H-purin-9-yl)-3,12-dihydroxy-2,4,7,11,13,16-hexaoxa-3λ^5,12λ^5-diphosphatricyclo[13.3.0.0^6,10]octadecane-3,12-dione]",0.28 µM
8,"Nc1ncnc2c1ncn2[C@@H]1CO[C@@H]2COP(=O)(S)O[C@H]3[C@@H](F)[C@H](n4cnc5c(N)ncnc54)O[C@@H]3COP(=O)(S)O[C@@H]12 (stereo partly drawn) [Compound 54, (1S,6R,8R,9R,10R,15R,18R)-8,18-bis(6-amino-9H-purin-9-yl)-9-fluoro-3,12-disulfanyl-2,4,7,11,13,16-hexaoxa-3λ^5,12λ^5-diphosphatricyclo[13.3.0.0^6,10]octadecane-3,12-dione]",0.01 µM
9,"Nc1ncnc2c1ncn2[C@@H]1CO[C@@H]2COP(=O)(S)O[C@H]3[C@@H](F)[C@H](n4cnc5c(N)ncnc54)O[C@@H]3COP(=O)(S)O[C@@H]12 (stereo partly drawn) [Compound 55, (1S,6R,8R,9R,10R,15R,18R)-8,18-bis(6-amino-9H-purin-9-yl)-9-fluoro-3,12-disulfanyl-2,4,7,11,13,16-hexaoxa-3λ^5,12λ^5-diphosphatricyclo[13.3.0.0^6,10]octadecane-3,12-dione]",0.01 µM
